The values below come from patent US11590158B2, “Pharmaceutical compositions of lipoic acid choline ester salts and methods of treatment using same” (Novartis AG, priority 2020, dated 2023).

The test system of one data set is rabbit eye. The data set can be described thus: Acute rabbit ocular tolerability study. As to conditions: rabbit left eye dosed 6 times, one drop about 30 microliter, about 1 hour apart. The format is in vivo. The procedure:
A number of excipients were explored to determine which excipients would reduce the formation of associative species. Acute rabbit ocular tolerability studies were performed to test the ocular tolerability of LACE tosylate with various excipients. The study design involved three male rabbits per arm. The rabbits' left eye was dosed 6 times with one drop each time, about 1 hour apart, administering about 30 microliter per drop. The right eye was not dosed and served as a control.

For data set [1], the system named is Staphylococcus aureus, Pseudomonas aeruginosa, Escherichia coli, Candida albicans, and Aspergillus brasiliensis. The data set can be described thus: Preservative efficacy test, overall outcome against USP criteria. The format is cell-based. Particulars: formulations with cyclodextrin. The procedure:
The testing was carried out using the following procedure: Five different challenge organisms were evaluated (Staphylococcus aureus, Pseudomonas aeruginosa, Escherichia coli, Candida albicans, and Aspergillus brasiliensis) were evaluated for each test formulation, and inoculated to a concentration of 10^6 colony forming units per ml (CFU/ml). The microbial suspension was incubated and sampled at 7, 14, 21, and 28 days. At the time of sampling, a sample was diluted 10-fold into tryptase soy broth medium, and 100 μl plated in growth agar plates to count survivors. The survivor count was used to determine log reduction. The preservative efficacy test criteria for multidose pharmaceutical compositions under US Pharmacopoeia standards are as follows. [table]

As for `CC(O)CO` (centres unmarked) [Propylene Glycol], in the data set on rabbit eye, the Tolerated entry is “No”. On to `N=C(N)NC(=N)N` [Biguanide], for which, in data set [1], the “efficacy as a preservative in LACE tosylate formulations” value is reported as “not found to be efficacious”.
